Laboratory results as given in patent publication US20250229006A1, “3D PRINTED ARTIFICIAL BILE DUCTS AND MANUFACTURING METHOD THEREOF” (IUCF-HYU (INDUSTRY-UNIVERSITY COOPERATION FOUNDATION …, priority 2024, published 2025).
“Also recorded” adds a separate entry of the source.

What was measured:
[1] = system: human chemically derived hepatic progenitors (hCdHs); assay: Differentiation of hCdHs into cholangiocytes (hCdH-Chols) on ABD; assay type: cell-based
Description: In manufacturing a 3D artificial bile duct disclosed in the present specification, cholangiocytes (hCdH-Chols) derived from human chemically derived hepatic progenitors (hCdHs) were used. Because primary cholangiocytes from humans and other mammals are difficult to isolate and propagate in vitro, human chemically derived hepatic progenitors (hCdHs) were utilized for biliary epithelium modeling. To generate hCdHs, human adult hepatocytes isolated from healthy donor livers were directly reprogrammed into bi-potent progenitors through combinatorial treatment with two small molecules, A83-01 and CHIR99021, in the presence of a hepatocyte growth factor (HGF) as described in a recent publication (Y. Kim, K. Kang, S. B. Lee, D. Seo, S. Yoon, […]. Jang, Y. K. Jung, K. G. Lee, V. M. Factor, J. Jeong, D. Choi, J Hepatol 2019, 70, 97.). A cholangiocyte differentiation protocol was applied when hCdHs reached a passage 3. The hCdHs cultured for 14 days in a cholangiocyte differentiation medium comprising Na-taurocholate (100 uM) and CHIR99021 ([…]) in the presence of a HGF for hCdH-Chols differentiation. The ABDs comprising the inner fibrous layer electrospun using 21 G and 27 G needles by the method of Example 2 were treated with UDCA, and after 50 days, whether differentiation into cholangiocytes using human chemically derived hepatic progenitors (hCdHs) is promoted was evaluated. As a control group, a 3D ABD untreated with UDCA was compared.

[2] = Evaluation of bile stones dissolution capacity; conditions: 0.5% UDCA, 37° C. with constant movement, 120 hours, bile stone weights measured every 24 hours; compared with water, EDTA, MTBE, Paclitaxel, Gemcitabine
Protocol: Pigment bile stones were stored in water, 1% ethylenediaminetetraacetic acid (EDTA), 0.5% ursodeoxycholic acid (UDCA), 99% methyl tert-butyl ether (MTBE), 20 μg/ml of Paclitaxel, and 200 uM of Gemcitabine, observed for 120 hours at 37° C. with constant movement, and the weights of the bile stones were measured every 24 hours to evaluate bile stone dissolution capacity (FIG. 1).

C[C@H](CCC(=O)O)[C@H]1CC[C@H]2[C@@H]3[C@@H](O)C[C@@H]4C[C@H](O)CC[C@]4(C)[C@H]3CC[C@]12C [UDCA, ursodeoxycholic acid]
differentiation of hepatic progenitors (hCdHs) into cholangiocytes (hCdH-Chols) ([1]; ABD treated with UDCA, after 50 days, vs 3D ABD untreated with UDCA): promoted differentiation | attachment of cells to the bile ducts by nanofibers of the inner fibrous layer ([1]; UDCA present in inner fibrous layer of ABD vs 3D ABD untreated with UDCA): better attached cells to the bile ducts | expression of cholangiocyte markers in hCdH-Chols ([1]; after a period of differentiation): high levels | bile stone dissolution capacity [2]: dissolved the most; also recorded: significantly increased compared to other solvents
